Molecular target: T1, Angiotensin II-Rezeptor (Rattus norvegicus, UniProt P25095)
T1 construct: Das Gewebe (Rattenlunge) wird in Tris-Puffer; from tissue; host or cells: rat lung (membrane pellet of the homogenate)
T1 sequence (P25095 1-359): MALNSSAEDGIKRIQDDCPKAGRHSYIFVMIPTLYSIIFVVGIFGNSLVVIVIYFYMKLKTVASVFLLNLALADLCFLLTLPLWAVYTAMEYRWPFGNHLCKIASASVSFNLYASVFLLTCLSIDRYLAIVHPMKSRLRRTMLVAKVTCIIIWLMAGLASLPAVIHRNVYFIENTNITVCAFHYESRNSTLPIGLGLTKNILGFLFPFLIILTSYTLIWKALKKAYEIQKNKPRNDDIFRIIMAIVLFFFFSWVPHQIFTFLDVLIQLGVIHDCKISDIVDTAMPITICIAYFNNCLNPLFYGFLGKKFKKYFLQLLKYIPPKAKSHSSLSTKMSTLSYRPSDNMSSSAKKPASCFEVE
Assay: Angiotensin II receptor binding ([125I]-angiotensin II displacement, rat lung homogenate)
Parameters: species or system Ratte
Conditions: Rattenlunge homogenate, 50 pM [125I]-Angiotensin II, 60 min at 37 °C
Procedure: Methodenbeschreibung Angiotensin II-Rezeptorbindung
Das Gewebe (Rattenlunge) wird in Tris-Puffer (50 mMol Tris, 150 mMol NaCI, 5 mMol EDTA, pH 7.40) homogenisiert und zweimal je 20 Min. bei 20.000 x g zentrifugiert. Das endgültige Pellet wird in Inkubations-Puffer (50 mMol Tris, 5 mMol MgCI2, 0,2 % BSA, pH 7.40) 1:75, bezogen auf das Feuchtgewicht des Gewebes, resuspendiert. Je 0,1 ml Homogenat wird für 60 Min. bei 37 ° C mit 50 pM [125']-Angiotensin II (NEN, Dreieich, FRG) und steigenden Konzentrationen der Testsubstanz in einem Gesamtvolumen von 0,25 ml inkubiert. Die Inkubation wird durch rasche Filtration durch Glasfiber-Filtermatten beendet. Die Filter werden je 4 ml eiskaltem Puffer (25 mMol Tris, 2.5 mMol MgCI2, 0,1 % BSA, pH 7,40) gewaschen. Die gebundene Radioaktivität wird in einem Gamma-Counter ermittelt. Aus der Dosis-Wirkungskurve wird der entsprechende 1C50-Wert ermittelt.

Structure (SMILES)	IC50
CCCc1nc2c(C)cccc2n1Cc1ccc(-c2ccccc2)c(Cc2nnn[nH]2)c1 [Substanz A, 2-n-Propyl-4-methyl-1-[3-(tetrazol-5-yl-methyl)-4-phenyl-benzyl]-benzimidazol]	0.37 µM
CCCc1nc2c(C)cccc2n1Cc1ccc(-c2ccccc2)c(CCC(=O)O)c1 [Substanz B, 2-n-Propyl-4-methyl-1-[3-(2-hydroxycarbonyl-ethyl)-4-phenyl-benzyl]-benzimidazol]	0.27 µM

The next lines start with the values.

IC50	Structure (SMILES)
0.018 µM	CCCc1nc2c(C)cc(-c3nc4ccccc4n3C)cc2n1Cc1ccc(-c2ccccc2)c(CCC(=O)O)c1 [Substanz C, 2-n-Propyl-4-methyl-6-(1-methyl-benzimidazol-2-yl)-1-[3-(2-hydroxycarbonyl-ethyl)-4-phenyl-benzyl]-benzimidazol]
0.073 µM	CCc1nc2c(C)cc(C)nc2n1Cc1ccc(-c2ccccc2)c(Cc2nnn[nH]2)c1 [Substanz D, 2-Ethyl-5,7-dimethyl-3-[3-(tetrazol-5-yl-methyl)-4-phenyl-benzyl]-imidazo[4,5-b]pyridin]
0.0069 µM	CCCc1nc2c(C)cc(-c3cn(C(C)C)cn3)cc2n1Cc1ccc(-c2ccccc2)c(CCc2nnn[nH]2)c1 [Substanz E, 2-n-Propyl-4-methyl-6-(1-isopropyl-imidazol-4-yl)-1-[3-(2-tetrazol-5-yl-ethyl)-4-phenyl-benzyl]-benzimidazol]

— patent EP0556789A2, “Substituted biphenyl derivatives, therapeutic agents containing them and process for their preparation” (Dr. Karl Thomae GmbH, priority 1992, dated 1993)
